Reference: US9156831B2, “Chemical compounds” (ASTRAZENECA AB, priority 2013, dated 2015)

Columns and labels:
U937 = assay: Cell proliferation assay (MTS); assay type: cell-based, human
Description: (§1) The sensitivity of a panel of human cancer cell lines to the effects of compounds was determined in a standard proliferation assay.
(§2) Cells were plated in 96 well plates at densities of 1000-6000 cells per well in RPMI media containing 10% FBS. After incubation at 37° C. for 16 hours, various concentrations of compound were added to the assay plates. After incubation for an additional 72 h, the viable cells were determined by the addition of MTS reagent (Promega #3582) to each well for 2 h. MTS is a tetrazolium salt that is bioreduced by metabolically active cells in the presence of an electron coupling reagent to formazan. The formazan product was then quantitated by absorbance at 490 nm, as an indicator of the relative number of live cells. In order to determine the GI50 (concentration at which growth of cells was inhibited by 50%) the relative number of cells present at the time of drug addition was determined by comparison with the MTS readout before the drug was added, and this value was subtracted from the 72 hr value of untreated cells as a measure of cell growth during the assay.

BT20 = assay: Cell proliferation assay (MTS); assay type: cell-based, human
Description: (§3) The sensitivity of a panel of human cancer cell lines to the effects of compounds was determined in a standard proliferation assay. Cell lines were sourced through the AstraZeneca Cell Bank.
as §2

MV411 = assay: Cell proliferation assay (MTS); assay type: cell-based, human
Description: as §1, §2

RERFLCSQ1 = assay: Cell proliferation assay (MTS); assay type: cell-based, human
Description: as §1, §2

SNU484 = assay: Cell proliferation assay (MTS); assay type: cell-based, human
Description: as §1, §2

MHCC97L = assay: Cell proliferation assay (MTS); assay type: cell-based, human
Description: as §3, §2

HCC1937 = assay: Cell proliferation assay (MTS); assay type: cell-based, human
Description: as §1, §2

H460DNP53 = assay: Cell proliferation assay (MTS); assay type: cell-based, human
Description: as §1, §2

HT1376 = assay: Cell proliferation assay (MTS); assay type: cell-based, human
Description: as §3, §2

PANC1005 = assay: Cell proliferation assay (MTS); assay type: cell-based, human
Description: as §1, §2

H2286 = assay: Cell proliferation assay (MTS)
Description: as §1
(§4) Cells were plated in 96 well plates at densities of 1000-6000 cells per well in RPMI media containing 10% FBS. After incubation at 37° C. for 16 hours, various concentrations of compound were added to the assay plates. After incubation for an additional 72 h, the viable cells were determined by the addition of MTS reagent (Promega #3582) to each well for 2 h. […] The formazan product was then quantitated by absorbance at 490 nm, as an indicator of the relative number of live cells. In order to determine the GI50 (concentration at which growth of cells was inhibited by 50%) the relative number of cells present at the time of drug addition was determined by comparison with the MTS readout before the drug was added, and this value was subtracted from the 72 hr value of untreated cells as a measure of cell growth during the assay.

LK2 = assay: Cell proliferation assay (MTS); assay type: cell-based, human
Description: as §3, §2

H1793 = assay: Cell proliferation assay (MTS); assay type: cell-based, human
Description: as §1, §2

AGS = assay: Cell proliferation assay (MTS); assay type: cell-based, human
Description: as §1, §2

CALU6 = assay: Cell proliferation assay (MTS); assay type: cell-based, human
Description: as §3, §2

HCC1806 = assay: Cell proliferation assay (MTS); assay type: cell-based, human
Description: as §1, §2

PANC89 = assay: Cell proliferation assay (MTS); assay type: cell-based, human
Description: as §1, §2

MCF7 xenograft = assay: Tumour growth inhibition, MCF7 xenograft model; assay type: in vivo, mouse; conditions: Example 3 alone 25 mg/kg twice daily every day; FIG. 12
Description: MCF7 is an estrogen receptor positive breast tumour cell line carrying a mutation in the PIKC3CA gene (E545K). […] SCID mice (AZ UK) were transplanted subcutaneously (s.c.) with human breast adenocarcinoma cell line MCF7 (ICRF London) to determine anti-tumour activity of PI3 kinase inhibitors. Mice were implanted with a 0.5 mg 21 day oestrogen pellet (Innovative Research of America) 24 hours prior to cell implantation. 5×10^6 cells in 50% matrigel (BD Bioscience) were injected s.c. on the left flank of the animals.
Animals were randomised into groups of 10-15 when tumours reached a volume of ˜200-300 mm^3 and treatment commenced. Animals were dosed for 3-4 weeks by peroral route, with compound in a suitable vehicle at defined doses and schedules. Tumours were measured two-three times weekly by caliper and volume of tumours calculated using elliptical formula (pi/6×width×width×length).

YAPC = assay: Cell proliferation assay (MTS); assay type: cell-based, human
Description: as §3, §2

SW1990 = assay: Cell proliferation assay (MTS); assay type: cell-based, human
Description: as §1, §2

CALU1 = assay: Cell proliferation assay (MTS); assay type: cell-based, human
Description: as §1, §2

IM95M = assay: Cell proliferation assay (MTS); assay type: cell-based, human
Description: as §3, §2

22RV1 = assay: Cell proliferation assay (MTS); assay type: cell-based, human
Description: as §1, §2

PC9 = assay: Cell proliferation assay (MTS); assay type: cell-based, human
Description: as §1, §2

MCF7MDR+ = assay: Cell proliferation assay (MTS); assay type: cell-based, human
Description: as §3, §2

HUPT3 = assay: Cell proliferation assay (MTS); assay type: cell-based, human
Description: as §3, §2

KG1 = assay: Cell proliferation assay (MTS); assay type: cell-based, human
Description: as §1, §2

CAPAN1 = assay: Cell proliferation assay (MTS); assay type: cell-based, human
Description: as §1, §2

CAPAN2 = assay: Cell proliferation assay (MTS); assay type: cell-based, human
Description: as §1, §4

H2170 = assay: Cell proliferation assay (MTS); assay type: cell-based, human
Description: as §3, §2

HCC1395 = assay: Cell proliferation assay (MTS); assay type: cell-based, human
Description: as §1, §4

IM9 = assay: Cell proliferation assay (MTS); assay type: cell-based, human
Description: as §3, §2

OCUM1 = assay: Cell proliferation assay (MTS); assay type: cell-based, human
Description: as §3, §2

H520 = assay: Cell proliferation assay (MTS)
Description: as §1, §2

H596 = assay: Cell proliferation assay (MTS); assay type: cell-based, human
Description: as §1, §2

RKO = assay: Cell proliferation assay (MTS); assay type: cell-based, human
Description: as §1, §2

WSUDLCL2 = assay: Cell proliferation assay (MTS); assay type: cell-based, human
Description: as §1, §4

[1] = Homo sapiens, Breast, PIK3CA WT
[2] = Homo sapiens, Pancreas, PIK3CA WT
[3] = Homo sapiens, Stomach, PIK3CA MUT

In the case of `CCn1nc(C2CCN(C(=O)CCO)CC2)nc1-c1cnc(N)c(-c2nnc(C(C)(C)C)o2)n1` [Example 3, 1-(4-(5-(5-amino-6-(5-tert-butyl-1,3,4-oxadiazol-2-yl)pyrazin-2-yl)-1-ethyl-1H-1,2,4-triazol-3-yl)piperidin-1-yl)-3-hydroxypropan-1-one], the Category (U937) is reported as “Resistant (resistant (GI50>1.0 μM))”, the GI50 (U937; Homo sapiens, U-937, Blood/lymph, PIK3CA WT) is reported as 7.34 µM and the Category (BT20) is reported as “Resistant (resistant (GI50>1.0 μM))”. For the same compound, the GI50 (BT20; Homo sapiens, BT-20, Breast, PIK3CA MUT) was 2.36 µM, the Category (MV411) was “Sensitive (sensitive (GI50<=1.0 μM))” and the GI50 (MV411; Homo sapiens, MV4-11, Blood/lymph, PIK3CA WT) was 0.382 µM. For the same compound, the GI50 (RERFLCSQ1; Homo sapiens, RERF-LC-Sq1, Lung, PIK3CA MUT) was 0.771 µM, the Category (RERFLCSQ1; RERFLCSQ1) was “Sensitive (sensitive (GI50<=1.0 μM))” and the Category (SNU484) was “Resistant (resistant (GI50>1.0 μM))”. For the same compound, the GI50 (SNU484; Homo sapiens, SNU-484, Stomach, PIK3CA WT) was 1.79 µM, the Category (MHCC97L) was “Resistant (resistant (GI50>1.0 μM))” and the GI50 (MHCC97L; Homo sapiens, Liver, PIK3CA WT) was 3.35 µM. The Category (HCC1937) was “Resistant (resistant (GI50>1.0 μM))”, the GI50 (HCC1937; [1]) was 30 µM and the Category (H460DNP53) was “Resistant (resistant (GI50>1.0 μM))”. For the same compound, the GI50 (H460DNP53; Homo sapiens, Lung, PIK3CA WT) was 18 µM, the Category (HT1376) was “Resistant (resistant (GI50>1.0 μM))” and the GI50 (HT1376; Homo sapiens, HT-1376, Bladder, PIK3CA WT) was 8.2 µM. For the same compound, the Category (PANC1005) was “Resistant (resistant (GI50>1.0 μM))”, the GI50 (PANC1005; [2]) was 2.61 µM and the Category (H2286; H2286) was “Resistant (resistant (GI50>1.0 μM))”. For the same compound, the GI50 (H2286; Homo sapiens, NCI-H2286) was 20 µM, the Category (LK2) was “Sensitive (sensitive (GI50<=1.0 μM))” and the GI50 (LK2; Homo sapiens, LK-2, Lung, PIK3CA WT) was 0.588 µM. The Category (H1793) was “Resistant (resistant (GI50>1.0 μM))”, the GI50 (H1793; Homo sapiens, NCI-H1793, Lung, PIK3CA WT) was 7.33 µM and the Category (AGS) was “Resistant (resistant (GI50>1.0 μM))”. The GI50 (AGS; [3]) was 1.41 µM, the Category (CALU6) was “Resistant (resistant (GI50>1.0 μM))” and the GI50 (CALU6; Homo sapiens, Calu-6, Lung, PIK3CA WT) was 26.2 µM. For the same compound, the Category (HCC1806) was “Resistant (resistant (GI50>1.0 μM))”, the GI50 (HCC1806; [1]) was 16.7 µM and the Category (PANC89) was “Resistant (resistant (GI50>1.0 μM))”. The GI50 (PANC89; [2]) was 1.62 µM, the tumour growth (MCF7 xenograft) was “caused some tumour regression” and the Category (YAPC) was “Resistant (resistant (GI50>1.0 μM))”. For the same compound, the GI50 (YAPC; [2]) was 30 µM, the Category (SW1990) was “Resistant (resistant (GI50>1.0 μM))” and the GI50 (SW1990; [2]) was 28.3 µM. For the same compound, the Category (CALU1) was “Resistant (resistant (GI50>1.0 μM))”, the GI50 (CALU1; Homo sapiens, Calu-1, Lung, PIK3CA WT) was 16 µM and the Category (IM95M) was “Sensitive (sensitive (GI50<=1.0 μM))”. For the same compound, the GI50 (IM95M; [3]) was 0.436 µM, the Category (22RV1) was “Resistant (resistant (GI50>1.0 μM))” and the GI50 (22RV1; Homo sapiens, Prostate, PIK3CA MUT) was 4.14 µM. The Category (PC9) was “Resistant (resistant (GI50>1.0 μM))”, the GI50 (PC9; Homo sapiens, PC-9, Lung, PIK3CA WT) was 30 µM and the Category (MCF7MDR+) was “Resistant (resistant (GI50>1.0 μM))”. The GI50 (MCF7MDR+; [1]) was 14.5 µM, the Category (HUPT3) was “Resistant (resistant (GI50>1.0 μM))” and the GI50 (HUPT3; Homo sapiens, HuP-T3, Pancreas, PIK3CA WT) was 13.4 µM. For the same compound, the Category (KG1) was “Resistant (resistant (GI50>1.0 μM))”, the GI50 (KG1; Homo sapiens, KG-1, Blood/lymph, PIK3CA WT) was 6.59 µM and the Category (CAPAN1) was “Resistant (resistant (GI50>1.0 μM))”. For the same compound, the GI50 (CAPAN1; Homo sapiens, CAPAN-1, Pancreas, PIK3CA WT) was 30 µM, the Category (CAPAN2) was “Resistant (resistant (GI50>1.0 μM))” and the GI50 (CAPAN2; Homo sapiens, Capan-2, Pancreas, PIK3CA WT) was 13.4 µM. The Category (H2170) was “Resistant (resistant (GI50>1.0 μM))”, the GI50 (H2170; Homo sapiens, NCI-H2170, Lung, PIK3CA WT) was 7.64 µM and the Category (HCC1395) was “Resistant (resistant (GI50>1.0 μM))”. The GI50 (HCC1395; [1]) was 21.8 µM, the Category (IM9) was “Resistant (resistant (GI50>1.0 μM))” and the GI50 (IM9; Homo sapiens, IM-9, Blood/lymph, PIK3CA WT) was 30 µM. For the same compound, the Category (OCUM1) was “Resistant (resistant (GI50>1.0 μM))”, the GI50 (OCUM1; Homo sapiens, Stomach, PIK3CA WT) was 2.33 µM and the Category (H520; H520) was “Resistant (resistant (GI50>1.0 μM))”. For the same compound, the GI50 (H520; Homo sapiens, NCI-H520) was 6.62 µM, the Category (H596) was “Sensitive (sensitive (GI50<=1.0 μM))” and the GI50 (H596; Homo sapiens, NCI-H596, Lung, PIK3CA MUT) was 0.302 µM. For the same compound, the Category (RKO) was “Resistant (resistant (GI50>1.0 μM))”, the GI50 (RKO; Homo sapiens, Colon, PIK3CA MUT) was 4.32 µM and the Category (WSUDLCL2) was “Resistant (resistant (GI50>1.0 μM))”. For the same compound, the GI50 (WSUDLCL2; Homo sapiens, Blood/lymph, PIK3CA WT) was 17.7 µM.
